Laboratory results published in patent publication US20240226101A1, “PYRIMIDINYLAMINOBENZENES FOR LUNG CANCER TREATMENT” (Suzhou Puhe BioPharma Co., LTD., priority 2021, published 2024).
“And” between values parts separate entries of the source, which are not always exact repeats. Identical values can stand only once.

What was measured:
[1] = molecular target: T1, EGFR D770_N771insSVD in Ba/F3 cell lines (Homo sapiens, UniProt P00533, INS770SVD); assay: […]-GLO cell viability assay, Ba/F3 cells with EGFR D770_N771insSVD; format: cell-based
T1 construct: expressed in transfected cells; host or cells: Ba/F3

[2] = molecular target: EGFR A763_Y764insFQEA (Homo sapiens, UniProt P00533, INS763FQEA); assay: HTFR KINEASE-TK kit (Cisbio) inhibition of EGFR mutant A763_Y764insFQEA; format: biochemical
Procedure: (§1) Compound A13 was tested against EGFR mutants: (i) three exon 20 insertions: […], D770_N771insNPG, and A763_Y764insFQEA; and (ii) one point mutation: L861Q; using an HTFR KINEASE-TK kit (Cisbio) according to the manufacturer's protocol.

[3] = molecular target: T2, EGFR A763_Y764insFQEA in Ba/F3 cell lines (Homo sapiens, UniProt P00533, INS763FQEA); assay: […]-GLO cell viability assay, Ba/F3 cells with EGFR A763_Y764insFQEA; format: cell-based
T2 construct: expressed in transfected cells; host or cells: Ba/F3

[4] = molecular target: T3, EGFR G719S in Ba/F3 cell lines (Homo sapiens, UniProt P00533, G719S); assay: […]-GLO cell viability assay, Ba/F3 cells with EGFR G719S; format: cell-based
T3 construct: expressed in transfected cells; host or cells: Ba/F3
T3 sequence (P00533 25-1210 G719S): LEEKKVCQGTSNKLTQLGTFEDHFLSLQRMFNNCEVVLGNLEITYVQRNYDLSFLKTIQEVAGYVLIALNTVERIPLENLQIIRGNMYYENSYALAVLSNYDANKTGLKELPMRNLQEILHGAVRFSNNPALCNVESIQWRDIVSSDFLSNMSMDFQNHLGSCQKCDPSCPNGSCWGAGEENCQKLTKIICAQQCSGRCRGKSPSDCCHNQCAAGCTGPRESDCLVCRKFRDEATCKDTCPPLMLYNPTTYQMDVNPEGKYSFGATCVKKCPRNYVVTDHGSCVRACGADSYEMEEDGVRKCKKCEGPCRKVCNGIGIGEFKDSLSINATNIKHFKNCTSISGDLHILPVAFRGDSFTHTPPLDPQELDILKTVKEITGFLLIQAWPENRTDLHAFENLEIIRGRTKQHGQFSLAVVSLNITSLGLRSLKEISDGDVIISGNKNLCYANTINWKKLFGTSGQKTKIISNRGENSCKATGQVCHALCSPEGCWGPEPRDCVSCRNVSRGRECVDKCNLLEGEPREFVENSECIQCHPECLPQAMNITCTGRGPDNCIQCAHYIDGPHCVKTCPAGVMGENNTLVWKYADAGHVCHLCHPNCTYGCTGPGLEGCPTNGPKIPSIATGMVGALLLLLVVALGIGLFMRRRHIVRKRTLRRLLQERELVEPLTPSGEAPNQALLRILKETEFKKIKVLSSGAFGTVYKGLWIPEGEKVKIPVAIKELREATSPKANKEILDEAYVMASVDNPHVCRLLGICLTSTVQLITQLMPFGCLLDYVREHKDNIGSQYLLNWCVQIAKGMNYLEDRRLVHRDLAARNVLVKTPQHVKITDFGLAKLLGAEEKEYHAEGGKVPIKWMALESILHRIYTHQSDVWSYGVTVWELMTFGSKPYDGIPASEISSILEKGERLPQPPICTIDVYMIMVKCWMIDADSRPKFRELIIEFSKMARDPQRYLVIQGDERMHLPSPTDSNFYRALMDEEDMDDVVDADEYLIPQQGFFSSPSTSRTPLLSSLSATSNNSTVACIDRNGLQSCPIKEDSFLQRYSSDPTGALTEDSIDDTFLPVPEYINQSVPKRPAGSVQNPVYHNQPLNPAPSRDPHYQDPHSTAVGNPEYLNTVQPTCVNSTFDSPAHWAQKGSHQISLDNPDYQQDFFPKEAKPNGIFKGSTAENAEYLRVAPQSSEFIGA

[5] = molecular target: T4, EGFR V769_D770insASV in Ba/F3 cell lines (Homo sapiens, UniProt P00533, INS769ASV); assay: […]-GLO cell viability assay, Ba/F3 cells with EGFR V769_D770insASV; format: cell-based
T4 construct: expressed in transfected cells; host or cells: Ba/F3

[6] = molecular target: T5, EGFR H773_V774insNPH in Ba/F3 cell lines (Homo sapiens, UniProt P00533, INS773NPH); assay: […]-GLO cell viability assay, Ba/F3 cells with EGFR H773_V774insNPH; format: cell-based
T5 construct: expressed in transfected cells; host or cells: Ba/F3

[7] = molecular target: EGFR L861Q (Homo sapiens, UniProt P00533, L861Q); assay: HTFR KINEASE-TK kit (Cisbio) inhibition of EGFR mutant L861Q; format: biochemical
Sequence of EGFR L861Q (P00533 25-1210 L861Q): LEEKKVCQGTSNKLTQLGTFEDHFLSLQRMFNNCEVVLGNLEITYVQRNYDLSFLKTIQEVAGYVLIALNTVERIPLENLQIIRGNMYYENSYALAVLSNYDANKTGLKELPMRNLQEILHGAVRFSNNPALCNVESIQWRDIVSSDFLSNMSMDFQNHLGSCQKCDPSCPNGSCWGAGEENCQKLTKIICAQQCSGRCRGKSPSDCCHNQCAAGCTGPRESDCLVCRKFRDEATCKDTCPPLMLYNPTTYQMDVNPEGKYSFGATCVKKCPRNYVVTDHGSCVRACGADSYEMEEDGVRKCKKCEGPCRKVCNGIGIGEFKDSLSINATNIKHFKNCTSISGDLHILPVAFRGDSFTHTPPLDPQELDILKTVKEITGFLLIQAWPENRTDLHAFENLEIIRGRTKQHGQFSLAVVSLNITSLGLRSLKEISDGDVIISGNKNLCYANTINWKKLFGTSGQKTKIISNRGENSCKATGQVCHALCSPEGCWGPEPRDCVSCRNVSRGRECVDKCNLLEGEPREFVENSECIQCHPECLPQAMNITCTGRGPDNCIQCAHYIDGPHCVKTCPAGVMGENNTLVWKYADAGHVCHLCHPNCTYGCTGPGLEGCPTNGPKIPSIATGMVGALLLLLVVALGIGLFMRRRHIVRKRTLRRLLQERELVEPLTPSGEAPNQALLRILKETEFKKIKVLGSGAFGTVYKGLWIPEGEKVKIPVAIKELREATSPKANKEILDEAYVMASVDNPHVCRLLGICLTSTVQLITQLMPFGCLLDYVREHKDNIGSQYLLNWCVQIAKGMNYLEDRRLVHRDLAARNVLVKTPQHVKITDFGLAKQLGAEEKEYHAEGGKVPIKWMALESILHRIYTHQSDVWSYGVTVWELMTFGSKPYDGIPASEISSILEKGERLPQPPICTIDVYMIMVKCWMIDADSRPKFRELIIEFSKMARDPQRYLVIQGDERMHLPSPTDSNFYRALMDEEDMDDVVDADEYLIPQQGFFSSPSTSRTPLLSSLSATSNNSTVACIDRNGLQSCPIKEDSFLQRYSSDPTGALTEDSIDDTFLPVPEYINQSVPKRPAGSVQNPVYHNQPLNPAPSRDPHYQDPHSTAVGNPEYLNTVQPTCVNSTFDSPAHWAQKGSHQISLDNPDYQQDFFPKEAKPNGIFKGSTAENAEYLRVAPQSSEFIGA
Procedure: as §1

[8] = Pharmacokinetics in the xenograft mouse model, single oral dose; format: in vivo, Balb/c Mice; details: 80 mg/kg single oral dose
Procedure: Using the same xenograft mouse model, the pharmacokinetic (PK) parameters of compound A13 were determined at 80 mg/kg with a single oral dose. For each mouse, blood samples were collected at 0, 1, 2, 4, 8, 16, and 24 h after dosing.

[9] = molecular target: T6, EGFR L861Q in Ba/F3 cell lines (Homo sapiens, UniProt P00533, L861Q); assay: […]-GLO cell viability assay, Ba/F3 cells with EGFR L861Q; format: cell-based
T6 construct: expressed in transfected cells; host or cells: Ba/F3
T6 sequence (P00533 25-1210 L861Q): as above

[10] = molecular target: EGFR D770_N771insNPG (Homo sapiens, UniProt P00533, INS770NPG); assay: HTFR KINEASE-TK kit (Cisbio) inhibition of EGFR mutant D770_N771insNPG; format: biochemical
Sequence of EGFR D770_N771insNPG (P00533 with tags, fused parts or gaps INS770NPG): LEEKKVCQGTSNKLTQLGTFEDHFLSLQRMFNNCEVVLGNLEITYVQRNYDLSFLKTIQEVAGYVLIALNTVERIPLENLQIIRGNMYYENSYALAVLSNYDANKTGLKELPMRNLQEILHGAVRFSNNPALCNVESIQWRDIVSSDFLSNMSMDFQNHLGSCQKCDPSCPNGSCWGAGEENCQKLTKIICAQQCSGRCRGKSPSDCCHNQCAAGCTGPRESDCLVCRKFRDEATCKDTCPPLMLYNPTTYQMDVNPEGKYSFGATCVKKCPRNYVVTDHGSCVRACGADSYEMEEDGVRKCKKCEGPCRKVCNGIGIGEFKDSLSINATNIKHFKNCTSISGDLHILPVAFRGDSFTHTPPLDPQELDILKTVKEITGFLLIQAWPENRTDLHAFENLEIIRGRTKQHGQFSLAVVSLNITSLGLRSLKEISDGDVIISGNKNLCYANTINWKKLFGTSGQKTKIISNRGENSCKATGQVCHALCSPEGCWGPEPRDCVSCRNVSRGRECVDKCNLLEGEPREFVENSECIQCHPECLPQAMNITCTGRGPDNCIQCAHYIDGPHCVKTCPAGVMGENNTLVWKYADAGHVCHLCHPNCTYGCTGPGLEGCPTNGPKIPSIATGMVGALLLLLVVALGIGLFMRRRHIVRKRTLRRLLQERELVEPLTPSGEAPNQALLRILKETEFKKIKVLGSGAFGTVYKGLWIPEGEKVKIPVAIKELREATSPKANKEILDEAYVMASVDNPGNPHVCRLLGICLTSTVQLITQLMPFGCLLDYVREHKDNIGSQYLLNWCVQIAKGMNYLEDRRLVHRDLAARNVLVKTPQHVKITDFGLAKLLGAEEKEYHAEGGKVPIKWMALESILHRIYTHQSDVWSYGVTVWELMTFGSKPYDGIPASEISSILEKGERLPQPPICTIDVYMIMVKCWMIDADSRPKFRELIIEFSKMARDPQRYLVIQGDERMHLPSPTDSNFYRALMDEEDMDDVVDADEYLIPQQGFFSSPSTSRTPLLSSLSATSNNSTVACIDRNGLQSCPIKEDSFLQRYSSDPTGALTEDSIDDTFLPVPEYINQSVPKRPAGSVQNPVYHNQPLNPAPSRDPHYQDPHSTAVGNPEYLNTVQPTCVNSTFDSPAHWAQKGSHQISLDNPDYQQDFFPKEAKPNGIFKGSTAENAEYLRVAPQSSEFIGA
Procedure: as §1

[11] = molecular target: EGFR V769_D770insGE (Homo sapiens, UniProt P00533, INS769GE); assay: HTFR KINEASE-TK kit (Cisbio) inhibition of EGFR mutant V769_D770insGE; format: biochemical
Procedure: as §1

[12] = test system: LU0387 lung cancer PDX model; assay: Antitumor activity in subcutaneous LU0387 lung cancer PDX xenograft mouse model; format: in vivo; details: for TV (mm^3) on Day 0: Day 0 (randomization, baseline); for TV (mm^3) on Day 0 / RTV (relative tumor volume) / TV (mm^3) on Day 21: benzoate salt
Procedure: Compound A13 as a single agent was evaluated for lung cancer treatment in a subcutaneous LU0387 lung cancer PDX model using female Balb/c nude mice. Tumor fragments from stock mice were harvested for inoculation into mice. Each mouse was inoculated subcutaneously in the right rear flank with a PDX model LU0387 tumor fragment (2-3 mm in diameter) for tumor development.
The randomization started when the mean tumor size reached approximately 517.37 mm^3. Twenty-four mice were randomly allocated to 8 study groups, with 3 mice per group. The date of randomization was designated as Day 0.
After tumor inoculation, the mice were checked daily for morbidity and mortality. The mice were checked for any effects of tumor growth and treatments on behavior such as mobility, food and water consumption, body weight gain/loss, eye/hair matting, and any abnormalities. Mortality and observed clinical signs were recorded for each individual mouse in detail.
Tumor volumes (TV) were measured twice per week after randomization using a caliper and the volume was calculated using the formula: V=(L×W×W)/2, where V is tumor volume, L is tumor length (the longest tumor dimension), and W is tumor width (the longest tumor dimension perpendicular to L).
Compound A13 was administered orally as a benzoate salt in a citrate/phosphate buffer at pH 4.0 at 20, 40, and 80 mg/kg once daily for 21 days. The results are summarized in Table 3, where RTV represents relative tumor volume.

[13] = 20 mg/kg orally once daily for 21 days
[14] = 40 mg/kg orally once daily for 21 days

Compound: C=CC(=O)Nc1cc(Nc2nccc(-c3cnc4c(C)cccn34)n2)c(OC)cc1N(C)CCN(C)C [A13, N-(2-((2-(dimethylamino)ethyl)(methyl)amino)-4-methoxy-5-((4-(8-methylimidazo[1,2-a]-pyridin-3-yl)pyrimidin-2-yl)amino)phenyl)acrylamide]
- IC50 [1]: 29 nM
- IC50 [2]: 0.73 nM
- IC50 [3]: 4 nM
- IC50 [4]: 2 nM
- IC50 [5]: 73 nM
- IC50 [6]: 62 nM
- IC50 [7]: 0.36 nM
- CLz [8]: 21.2 ± 1.8 L/h/kg
- Vz [8]: 52 ± 17 L/kg
- Cmax ([8]; Balb/c, mouse, blood): 1.38 ± 0.432 µg/mL
- half-life ([8]; Balb/c, mouse, blood): 1.7 ± 0.6 h
- AUC(0-t) ([8]; Balb/c, mouse, blood, 0-24 h): 3.6 ± 0.273 µg·h/mL
- IC50 [9]: 5 nM
- IC50 [10]: 0.42 nM
- IC50 [11]: 0.62 nM
- TV (mm^3) on Day 0 ([12]; 20 mg/kg group): 86 ± 6 mm^3
- RTV (relative tumor volume) [12, 13]: 517 ± 61
- TV (mm^3) on Day 21 [12, 13]: 602 ± 67 mm^3
- TV (mm^3) on Day 0 ([12]; 40 mg/kg group): 89 ± 6 mm^3
- RTV (relative tumor volume) [12, 14]: 281
- TV (mm^3) on Day 21 [12, 14]: 370 ± 31 mm^3
- TGI (tumor growth inhibition) ([12]; 40 mg/kg orally once daily for 21 days, vs. vehicle control (P=0.016)): 61%
- TV (mm^3) on Day 0 ([12]; 80 mg/kg group): 86 mm^3 and 86 ± 6 mm^3
- TV (mm^3) on Day 21 ([12]; 80 mg/kg orally once daily for 21 days): 36 mm^3 and 36 ± 9 mm^3
- TGI (tumor growth inhibition) ([12]; 80 mg/kg orally once daily for 21 days, vs. vehicle control (P<0.001)): 107%
- Tolerability ([12]; 20, 40, and 80 mg/kg orally once daily for 21 days in tumor-bearing mice): well tolerated
